Numbers after ± are expanded uncertainties.
Assays:
[1] = mn = molality of the nth substance listed, in mol/kg; conditions: 100 kPa, Liquid; for viscosity: Capillary tube (Ostwald / Ubbelohde) method; for speed of sound: Frequency=2 MHz, Linear variable-path acoustic interferometer
[2] = 100 kPa, Liquid, Capillary tube (Ostwald / Ubbelohde) method

| viscosity ([1]; 298.15 K, m2 = 0) [mPa·s] | speed of sound ([1]; 298.15 K, m2 = 0) [m/s] | viscosity ([1]; 303.15 K, m2 = 0) [mPa·s] | viscosity ([1]; 308.15 K, m2 = 0) [mPa·s] | viscosity ([1]; 313.15 K, m2 = 0) [mPa·s] | speed of sound ([1]; 313.15 K, m2 = 0) [m/s] | Structure (SMILES) | other results |
| --- | --- | --- | --- | --- | --- | --- | --- |
| – | – | – | – | – | – | CCCCn1cc[n+](C)c1.[Cl-] [1-butyl-3-methylimidazolium chloride] + O | viscosity ([1]; 298.15 K, m1 = 0.0155): 0.8976 ± 0.019 mPa·s; viscosity ([1]; 298.15 K, m1 = 0.0257): 0.9023 ± 0.019 mPa·s; viscosity ([1]; 298.15 K, m1 = 0.0567): 0.9166 ± 0.019 mPa·s; viscosity ([1]; 298.15 K, m1 = 0.0653): 0.9205 ± 0.019 mPa·s; viscosity ([1]; 298.15 K, m1 = 0.0782): 0.9265 ± 0.019 mPa·s; viscosity ([1]; 298.15 K, m1 = 0.0895): 0.9317 ± 0.019 mPa·s; viscosity ([1]; 298.15 K, m1 = 0.0923): 0.933 ± 0.019 mPa·s; viscosity ([1]; 298.15 K, m1 = 0.1052): 0.9389 ± 0.02 mPa·s; viscosity ([1]; 298.15 K, m1 = 0.1123): 0.9422 ± 0.02 mPa·s |
| – | – | – | – | – | – | O [water] | viscosity ([2]; 298.15 K): 0.8905 ± 0.019 mPa·s; viscosity ([2]; 303.15 K): 0.7977 ± 0.017 mPa·s; viscosity ([2]; 308.15 K): 0.7195 ± 0.015 mPa·s; viscosity ([2]; 313.15 K): 0.6532 ± 0.014 mPa·s |
| 0.8905 ± 0.019 | 1497.6 ± 4.3 | 0.7977 ± 0.017 | 0.7195 ± 0.015 | 0.6532 ± 0.014 | 1528.5 ± 4.3 | O [water] + CCCC[P+](C)(CCCC)CCCC.COS(=O)(=O)[O-] | – |
| 0.8905 ± 0.019 | 1497.6 ± 4.3 | 0.7977 ± 0.017 | 0.7195 ± 0.015 | 0.6532 ± 0.014 | 1528.5 ± 4.3 | O [water] + CCCC[P+](CCCC)(CCCC)CCCC.[Cl-] | – |
| 0.8905 ± 0.019 | – | – | – | – | – | O [water] + CCCCn1cc[n+](C)c1.[Cl-] | – |

| Structure (SMILES) | viscosity ([1]; 298.15 K, m2 = 0) [mPa·s] | speed of sound ([1]; 298.15 K, m2 = 0) [m/s] | viscosity ([1]; 303.15 K, m2 = 0) [mPa·s] | viscosity ([1]; 308.15 K, m2 = 0) [mPa·s] | viscosity ([1]; 313.15 K, m2 = 0) [mPa·s] | speed of sound ([1]; 313.15 K, m2 = 0) [m/s] | other results |
| --- | --- | --- | --- | --- | --- | --- | --- |
| O [water] + CC(C)C[P+](C)(CC(C)C)CC(C)C.Cc1ccc(S(=O)(=O)[O-])cc1 | 0.8905 ± 0.019 | 1497.6 ± 4.3 | 0.7977 ± 0.017 | 0.7195 ± 0.015 | 0.6532 ± 0.014 | 1528.5 ± 4.3 | – |

From the NIST ThermoML archive (doi:10.1016/j.jct.2015.09.029)
